The series concerns rat chronic carcinogenicity bioassay, TD50. In words: DSSTox (CPDBAS) Carcinogenic Potency Database Summary Rat Bioassay Results. The settings on record: for Potency: stronger effect = lower value; for outcome: TD50_Rat_Note: no positive results. In outline: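 Chronic long-term rat cancer bioassays from literature and NCI/NTP, taking the most positive result per sex. TD50 in mmol converted to a 1–100 Activity Score from log10(1/TD50). Mixtures lacking TD50 scored 50.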

Setting [1] is: TargetSites_Rat_BothSexes: no positive results.
[2] abbreviates: TargetSites_Rat_Female: no positive results.
Where [3] appears, read: TargetSites_Rat_BothSexes: all tumor bearing animals.
Setting [4] is: TD50_Rat_Note: TD50 is harmonic mean of more than one positive test, TargetSites_Rat_Female: liver.

Activity calls are given as the source filed them.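 Rule for the calls: active = at least one rat sex group has a carcinogenic potency value and tumor site recorded; inconclusive = only rat studies were judged inadequate by the national testing program; inactive = no potency or tumor site, with negative rat experiments.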

Data on 81 compounds can be found in PubChem BioAssay AID1208 (EPA DSSTox, 2008).

Regarding `O=NN1CCCN(N=O)CC1`, the Potency (TD50_Rat_Note: TD50 is harmonic mean of more than one positive test, TargetSites_Rat_Female: esophagus, liver, nasal cavity, oral cavity) is 0.0615 mg/kg/day. For `OCCOCCOCCO`, the outcome is “inactive; no positive results”. As to `CC1CN(N=O)CC(C)N1C(=O)c1ccccc1` (stereo unspecified), the Potency (TargetSites_Rat_Female: stomach) was 9.66 mg/kg/day.

As to `O=S(=O)(O)NC1CCCCC1`, under setting [1], the outcome was inactive.

For `C[C@H](CCc1ccccc1)NC[C@H](O)c1ccc(O)c(C(N)=O)c1`, the outcome under setting [2] is “inactive; no positive results”.

Turning to `O=NN1CC=CCO1`, the Potency under setting [3] is 90.6 mg/kg/day.

Consider `O=C1c2ccccc2C(=O)N1SC(Cl)(Cl)Cl`, for which the outcome under setting [2] is “inactive; no positive results”. For the compound `OC(Cn1cncn1)(Cn1cncn1)c1ccc(F)cc1F`, the Potency under setting [2] is 80.7 mg/kg/day. For the compound `CC(Oc1c(Cl)cccc1Cl)C1=NCCN1` (stereo unspecified), the outcome under setting [2] was “inactive; no positive results”. For the compound `O=C1CCCCC1`, the outcome under setting [2] is “inactive; no positive results”. Consider `O=C(OOC(=O)c1ccccc1)c1ccccc1`, for which, under setting [1], the result was inactive. In the case of `CSCCC(N)C(=O)O` (stereo unspecified), the outcome is “inactive; no positive results”. As to `COP(=S)(OC)Oc1ccc([N+](=O)[O-])cc1`, under setting [2], the outcome is “inactive; no positive results”. Regarding `ClC(Cl)C(Cl)(Cl)Cl`, under setting [2], the outcome is “inactive; no positive results”. For `O=C/C=C/c1ccccc1`, the outcome under setting [2] is “inactive; no positive results”. Regarding `Clc1cccc(-c2ccc(Cl)c(Cl)c2Cl)c1Cl`, the Potency (TD50_Rat_Note: TD50 is harmonic mean of more than one positive test, TD50_Rat_mmol was not calculated for this mixture, but Activiity S, TargetSites_Rat_Female: liver) is 4.8 mg/kg/day. For `COc1ccc(N)c(C)c1`, the Potency (TD50_Rat_Note: TD50 is harmonic mean of more than one positive test, TargetSites_Rat_Female: urinary bladder) is 470 mg/kg/day. As for `COc1ccccc1N1CCN(CCCNc2cc(=O)n(C)c(=O)n2C)CC1`, under setting [2], the outcome is “inactive; no positive results”. `Cn1c(=O)c2c(ncn2C)n(C)c1=O`: the outcome under setting [2] was “inactive; no positive results”.

As for `C[C@H]1C(=O)O[C@@H]2CCN3CC=C(COC(=O)[C@](C)(O)[C@]1(C)O)[C@H]23`, the Potency (TD50_Rat_Note: TD50 is harmonic mean of more than one positive test) is 0.94 mg/kg/day. With `O=C(O)c1ccccc1-c1c2cc(I)c(=O)c(I)c-2oc2c(I)c(O)c(I)cc12`, the outcome under setting [2] is “inactive; no positive results”. As to `CC(C)(c1ccc(O)cc1)c1ccc(O)cc1`, under setting [2], the outcome is “inactive; no positive results”. For `O=[As]O`, the outcome under setting [1] was inactive. With `COC(=O)C1=CCCN(N=O)C1`, the outcome was “inactive; no positive results”. `O`: under setting [2], the outcome is “inactive; no positive results”.

In the case of `CCCCC(CC)CO` (stereo unspecified), under setting [2], the outcome was “inactive; no positive results”. Consider `CCCN(N=O)C(N)=O`, for which the Potency (TD50_Rat_Note: TD50 is harmonic mean of more than one positive test, harmonic mean of TD50 includes a value for upper 99% confidence li, TargetSites_Rat_Female: hematopoietic system) was 3.77 mg/kg/day. In the case of `S=C([S-])NCCNC(=S)[S-].[Mn+2]`, under setting [3], the Potency was 157 mg/kg/day. `Nc1ccc2nc3ccccn3c2n1`: the Potency (TD50_Rat_Note: TD50 is harmonic mean of more than one positive test, TargetSites_Rat_Female: clitoral gland, ear Zymbals gland, large intestine, liver, small intestine) was 42.3 mg/kg/day. In the case of `Cc1ccc(NC(N)=O)cc1`, under setting [2], the outcome was “inactive; no positive results”.

For the compound `ClCCl`, where the note is “TD50_Rat_Note: TD50 is harmonic mean of more than one positive test, TargetSites_Rat_Female: mammary gland”, the Potency is 724 mg/kg/day. For the compound `Cn1cnc([N+](=O)[O-])c1Sc1ncnc2nc[nH]c12`, the result under setting [2] was inactive. For `C[C@H]1CCCC(=O)CCC/C=C/c2cc(O)cc(O)c2C(=O)O1`, under setting [2], the outcome was “inactive; no positive results”. Turning to `CN1C2CC[C@@H]1CC(NC(=O)c1cc(Cl)cc3c1OC(C)(C)C3)C2` (stereo partly specified), the outcome under setting [2] was “inactive; no positive results”.

For the compound `O=C1OC(O)C(C(Cl)Cl)=C1Cl` (stereo unspecified), the Potency (TD50_Rat_Note: TD50 is harmonic mean of more than one positive test, TargetSites_Rat_Female: adrenal gland, hematopoietic system, liver, mammary gland, thyroid gland) was 0.583 mg/kg/day. Take `CC1SC(C)N(N=O)C(C)S1` (stereo unspecified): the Potency (TargetSites_Rat_Female: esophagus, liver, oral cavity) is 0.483 mg/kg/day. Consider `CN(C)CCN(Cc1cccs1)c1ccccn1`, for which, under setting [4], the Potency was 9.13 mg/kg/day.

Take `OCCN(CCO)c1nc(-c2cccs2)nc2ccccc12`: the outcome under setting [2] was inactive.

Turning to `CN(N=O)C(=O)c1ccccc1`, the Potency (TD50_Rat_Note: TD50 is harmonic mean of more than one positive test, TargetSites_Rat_Female: all tumor bearing animals) is 3.23 mg/kg/day. On to `ClCC(Cl)Cl`, for which the outcome under setting [2] was “inactive; no positive results”. With `CCCC[N+](=O)[O-]`, the outcome was “inactive; no positive results”. Take `BrCCBr`: the Potency (TD50_Rat_Note: TD50 is harmonic mean of more than one positive test, TargetSites_Rat_Female: liver, lung, mammary gland, nasal cavity, pituitary gland, stomach, vascular system) is 1.52 mg/kg/day. As to `CC(C)NCC(O)COc1cccc2ccccc12` (stereo unspecified), under setting [2], the outcome was “inactive; no positive results”. On the same count and under the same terms, in the case of `O=C(NCC1CCCCN1)c1cc(OCC(F)(F)F)ccc1OCC(F)(F)F` (stereo unspecified) it was “inactive; no positive results”. The same measure, in the same setting: the result for `CC#N` reads “inactive; no positive results”. Turning to `ClC1(Cl)C2(Cl)C3(Cl)C4(Cl)C(Cl)(Cl)C5(Cl)C3(Cl)C1(Cl)C5(Cl)C24Cl` (stereo unspecified), the Potency (TD50_Rat_Note: TD50 is harmonic mean of more than one positive test, TargetSites_Rat_Female: hematopoietic system, liver) was 1.77 mg/kg/day. As for `FC(F)(F)C(Cl)Cl`, for the setting “TD50_Rat_Note: TD50 is harmonic mean of more than one positive test, greater than ten-fold variation among TD50 values for positive res, TargetSites_Rat_Female: liver”, the Potency is 2370 mg/kg/day.

As to `CCCOC(=O)c1cc(O)c(O)c(O)c1`, the outcome under setting [2] is “inactive; no positive results”. Regarding `O=NN1CCCC1`, the Potency (TD50_Rat_Note: TD50 is harmonic mean of more than one positive test, harmonic mean of TD50 includes a value for upper 99% confidence li, TargetSites_Rat_Female: liver, vascular system) was 0.799 mg/kg/day.

Turning to `S=C=NCCc1ccccc1`, the outcome was “inactive; no positive results”. With `Cc1ccc([N+](=O)[O-])cc1`, under “TargetSites_Rat_Female: clitoral gland”, the Potency was 257 mg/kg/day.

For `O=P(OCC(Br)CBr)(OCC(Br)CBr)OCC(Br)CBr` (stereo unspecified), where the note is “TD50_Rat_Note: TD50 is harmonic mean of more than one positive test, TargetSites_Rat_Female: kidney”, the Potency is 3.83 mg/kg/day. As for `Cc1ccc2cc3c(ccc4ccccc43)c3c2c1CC3`, under “TD50_Rat_Note: TD50 is harmonic mean of more than one positive test, harmonic mean of TD50 includes a value for upper 99% confidence li, TargetSites_Rat_Female: mammary gland”, the Potency was 0.491 mg/kg/day. Turning to `CCN(CC)C(=S)SSC(=S)N(CC)CC`, under setting [2], the outcome was “inactive; no positive results”. For `NCCCCCC(=O)O`, the outcome is “inactive; no positive results”. With `CC(O)COC(C)(C)C` (stereo unspecified), the outcome under setting [2] is “inactive; no positive results”.

`CCC[C@@H]1O[C@@H]2C[C@H]3[C@@H]4CCC5=CC(=O)C=C[C@]5(C)[C@H]4[C@@H](O)C[C@]3(C)[C@]2(C(=O)CO)O1`: the Potency was 0.291 mg/kg/day.

In the case of `CCCc1cc(=O)[nH]c(=S)[nH]1`, the Potency (TD50_Rat_Note: TD50 is harmonic mean of more than one positive test, TargetSites_Rat_Female: thyroid gland) is 13.7 mg/kg/day.

In the case of `CCC(C)[N+](=O)[O-]` (stereo unspecified), the Potency is 2.86 mg/kg/day.

On to `CNCCC(Oc1ccc(C(F)(F)F)cc1)c1ccccc1` (stereo unspecified), for which the outcome under setting [2] is “inactive; no positive results”.

Consider `CN(N=O)C(=O)N[C@@H]1[C@@H](O)[C@H](O)[C@@H](CO)O[C@@H]1O`, for which the Potency (TD50_Rat_Note: positive test results only by intraperitoneal or intravenous injection, TD50 is harmonic mean of more than one positive, TargetSites_Rat_Female: kidney) was 0.963 mg/kg/day. `CCN(Cc1cccc(S(=O)(=O)O)c1)c1ccc(C(=C2C=CC(=[N+](CC)Cc3cccc(S(=O)(=O)O)c3)C=C2)c2ccccc2S(=O)(=O)[O-])cc1`: under setting [1], the result was inactive. Consider `[O]=[Cr][O][Cr]=[O]`, for which the result under setting [1] was inactive.

Consider `ClC(Cl)Cl`, for which, under setting [4], the Potency was 262 mg/kg/day.

With `CC(COc1ccc(C(C)(C)C)cc1)OS(=O)OCCCl` (stereo unspecified), where the note is “TD50_Rat_Note: TD50 is harmonic mean of more than one positive test, TargetSites_Rat_BothSexes: liver”, the Potency is 96.7 mg/kg/day. For `C=CCN(CC(C)=O)N=O`, under “TargetSites_Rat_Female: esophagus, liver”, the Potency was 0.335 mg/kg/day. For `O=[N+]([O-])c1c(Cl)c(Cl)c(Cl)c(Cl)c1Cl`, under setting [2], the outcome was “inactive; no positive results”. Regarding `Cc1cc(N)ccc1N`, the outcome under setting [2] was “inactive; no positive results”. For `O=NN1CCCCC1C(=O)O` (stereo unspecified), under setting [2], the outcome was “inactive; no positive results”. In the case of `Clc1cc2c(c(Cl)c1Cl)Oc1c(cc(Cl)c(Cl)c1Cl)O2`, for the setting “TargetSites_Rat_Female: liver”, the Potency was 0.000596 mg/kg/day.

Consider `CCNc1nc(Cl)nc(NC(C)(C)C#N)n1`, for which the Potency (TargetSites_Rat_Female: mammary gland) is 6.33 mg/kg/day. For `Cc1ccc2c(-c3cccc(O)c3)nc(=O)n(C(C)C)c2c1`, the outcome under setting [2] is “inactive; no positive results”. On to `O=S(=O)(O)c1cc(S(=O)(=O)O)c2c(N=Nc3ccccc3)c(O)ccc2c1`, for which the outcome under setting [2] was “inactive; no positive results”. With `CC(COc1ccccc1)N(CCCl)Cc1ccccc1` (stereo unspecified), the Potency (TD50_Rat_Note: positive test results only by intraperitoneal or intravenous injection, TD50 is harmonic mean of more than one positive, TargetSites_Rat_Female: peritoneal cavity) was 1.09 mg/kg/day.

`O=C1OC(c2ccc(O)cc2)(c2ccc(O)cc2)c2ccccc21`: the Potency (TD50_Rat_Note: TD50 is harmonic mean of more than one positive test, TargetSites_Rat_Female: adrenal gland) is 902 mg/kg/day. Turning to `C[C@@H]1O[C@@]2(CS1)CN1CCC2CC1`, the outcome under setting [2] was “inactive; no positive results”. Consider `CC(N)=S`, for which the Potency is 11.5 mg/kg/day.

As to `CN(C)CCN(Cc1cccs1)c1ccccc1`, the outcome under setting [2] was “inactive; no positive results”. Consider `Nc1ccc(-c2ccc(N)c(N)c2)cc1N`, for which the Potency is 395 mg/kg/day.

For the compound `CC(C)=CCC/C(C)=C/C=O`, under setting [2], the outcome is “inactive; no positive results”. `CCC1CO1` (stereo unspecified): the Potency under setting [2] was 220 mg/kg/day.
